Some test systems named below: CAKI-1 renal; EKVX NSCLC; HL-60(TB) leukemia; MDA-MB-435; NCI-H460 lung; NCI/ADR-RES ovarian; OVCAR-5 ovarian; SF-268 CNS; SK-MEL-28 melanoma; OVCAR-8 ovarian.
Assay in all cases: inhibition of tumour cell growth, NCI panel, 48 h

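Assay format: 96-well plates, 48-hour exposure. Here, GI50 denotes the concentration required for 50% inhibition of growth. TGI: total growth inhibition.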 Where only a bound is given, the exact number is not on record here.

On to `CCOc1ccc2cc(-c3nn(CC4CCN(C)CC4)c4ncnc(N)c34)ccc2c1`, for which the GI50 in the test with CAKI-1 renal is 11.1 µM; in the test on EKVX NSCLC, 26.4 µM; with HL-60(TB) leukemia, 15.7 µM; in the test with MDA-MB-435, 12.2 µM; with NCI-H460 lung it was 16.7 µM; in the test with NCI/ADR-RES ovarian, 14.7 µM. Further, the GI50 was 14.4 µM in the test with OVCAR-5 ovarian, 13.7 µM in the test with SF-268 CNS and 3.12 µM with SK-MEL-28 melanoma. The TGI is 25.8 µM with CAKI-1 renal; above 100 µM in the test with EKVX NSCLC; 34.6 µM in the test on HL-60(TB) leukemia; 24.7 µM in the test with MDA-MB-435; 33.7 µM with NCI-H460 lung; 28.2 µM in the test on NCI/ADR-RES ovarian. Also, the TGI turned out to be 32.2 µM with OVCAR-5 ovarian, 30.2 µM in the test on SF-268 CNS and 10.1 µM in the test on SK-MEL-28 melanoma.

Consider `OC[C@H]1N[C@H](CO)[C@@H](O)[C@H]1O`, for which the TGI in the test on CAKI-1 renal, with EKVX NSCLC, with HL-60(TB) leukemia, in the test on MDA-MB-435, in the test with NCI/ADR-RES ovarian and in the test on OVCAR-5 ovarian was above 100 µM throughout. For the same molecule, the TGI in the test on OVCAR-8 ovarian, in the test with SF-268 CNS and in the test with SK-MEL-28 melanoma was above 100 µM each time.

For the molecule `CSC(=S)NCc1cn(C)c2ccccc12`, the GI50 in the test on CAKI-1 renal is 20.8 µM; in the test with EKVX NSCLC it was 32 µM; in the test with MDA-MB-435, 27.8 µM; in the test with NCI-H460 lung, 29.4 µM; with NCI/ADR-RES ovarian it was 30 µM; in the test with OVCAR-5 ovarian it was 44.1 µM. In addition, the GI50 in the test with OVCAR-8 ovarian is 24.2 µM; in the test with SF-268 CNS, 23.5 µM; with SK-MEL-28 melanoma it was above 100 µM. In addition, the TGI with CAKI-1 renal is 61.3 µM; with EKVX NSCLC, above 100 µM; in the test with MDA-MB-435 it was above 100 µM; with NCI-H460 lung, above 100 µM; in the test with NCI/ADR-RES ovarian, above 100 µM; in the test on OVCAR-5 ovarian it was above 100 µM. The TGI in the test on OVCAR-8 ovarian was 90.6 µM; in the test on SF-268 CNS it was 68 µM; with SK-MEL-28 melanoma it was above 100 µM.

`CC(=O)/C(=N\N=C(N)N)c1ccccc1`: the TGI in the test on CAKI-1 renal, in the test with EKVX NSCLC, in the test on MDA-MB-435, with NCI-H460 lung, with NCI/ADR-RES ovarian and with OVCAR-5 ovarian was above 100 µM in each case. Also, the TGI in the test on OVCAR-8 ovarian, with SF-268 CNS and with SK-MEL-28 melanoma was above 100 µM each time.

For the molecule `C[C@]12CCC3c4ccc(O)cc4CCC3C1CC[C@@H]2NC(=O)/C=C/c1ccc(O)c(O)c1` (stereo partly specified), the GI50 in the test on CAKI-1 renal is 16.4 µM; in the test with EKVX NSCLC, 10.2 µM; in the test on MDA-MB-435, 13.6 µM; with NCI-H460 lung it was 11.9 µM; with NCI/ADR-RES ovarian it was 16.2 µM; in the test on OVCAR-5 ovarian, 18.1 µM. The GI50 in the test on OVCAR-8 ovarian is 10.4 µM; with SF-268 CNS, 11.2 µM; with SK-MEL-28 melanoma, 9.59 µM. Further, the TGI in the test on CAKI-1 renal stood at 48.4 µM; in the test with EKVX NSCLC, 31.2 µM; in the test with MDA-MB-435, 39.1 µM; with NCI-H460 lung, 35.3 µM; in the test on NCI/ADR-RES ovarian it was 41.7 µM; in the test with OVCAR-5 ovarian, 35.9 µM. Besides, the TGI in the test on OVCAR-8 ovarian turned out to be 29.1 µM; with SF-268 CNS it was 45.3 µM; in the test with SK-MEL-28 melanoma, 24.5 µM.

As to `CC(=O)c1nc(-c2ccc(C[C@@H](CNC(=O)CN(C)C)NC(=O)c3ccc(OC(C)C)c(Cl)c3)cc2)cn1C`, the GI50 was 0.0455 µM with EKVX NSCLC; 0.0223 µM in the test on HL-60(TB) leukemia; 0.0297 µM in the test on MDA-MB-435; 0.0291 µM in the test on NCI-H460 lung; 0.511 µM with NCI/ADR-RES ovarian; 0.0618 µM in the test on OVCAR-5 ovarian. In addition, the GI50 with OVCAR-8 ovarian was 0.0617 µM; in the test on SF-268 CNS it was 0.242 µM; in the test with SK-MEL-28 melanoma, 8.01 µM. Moreover, the TGI in the test on EKVX NSCLC was determined as 17.8 µM; in the test on HL-60(TB) leukemia, 0.0719 µM; in the test with MDA-MB-435 it was 14 µM; in the test with NCI-H460 lung, 11.8 µM; in the test with NCI/ADR-RES ovarian, 18.3 µM; in the test with OVCAR-5 ovarian, 18.6 µM. Further, the TGI came to 23.4 µM in the test with OVCAR-8 ovarian, 22.7 µM in the test with SF-268 CNS and 22.6 µM in the test on SK-MEL-28 melanoma.

As to `Cc1cc(C)nc(NC(=O)COc2ccc(Cl)cc2)c1`, the TGI in the test with CAKI-1 renal, in the test with EKVX NSCLC, in the test on MDA-MB-435, with NCI-H460 lung, in the test on NCI/ADR-RES ovarian and with OVCAR-5 ovarian was above 100 µM each time. The TGI in the test on OVCAR-8 ovarian, in the test with SF-268 CNS and in the test on SK-MEL-28 melanoma was above 100 µM each time.

Regarding `C=C1C(=O)O[C@@H]2C[C@@H](C)[C@@H]3C=CC(=O)[C@@]3(C)[C@@H](OC(=O)CCCC(=O)O[C@H]3[C@@H]4C(=C)C(=O)O[C@@H]4C[C@@H](C)[C@@H]4C=CC(=O)[C@]43C)[C@H]12`, the TGI is 0.187 µM in the test on CAKI-1 renal; 0.264 µM with EKVX NSCLC; 0.0329 µM in the test on MDA-MB-435; 0.955 µM with NCI-H460 lung; 4.12 µM in the test with NCI/ADR-RES ovarian; 0.387 µM with OVCAR-5 ovarian. Besides, the TGI was found to be 0.0295 µM in the test with OVCAR-8 ovarian, 0.23 µM with SF-268 CNS and 0.136 µM in the test on SK-MEL-28 melanoma.

Take `CCCCC[C@H]1C/C=C2/C(=O)C=C[C@@H]2C/C=C\CCCC(=O)O1`: the GI50 was 0.172 µM in the test with EKVX NSCLC; 0.12 µM in the test with HL-60(TB) leukemia; 0.169 µM with MDA-MB-435; 0.156 µM in the test with NCI-H460 lung; 0.181 µM in the test with NCI/ADR-RES ovarian; 0.221 µM with OVCAR-5 ovarian. Moreover, the GI50 is 0.149 µM with OVCAR-8 ovarian, 0.19 µM in the test with SF-268 CNS and 0.155 µM in the test on SK-MEL-28 melanoma. The TGI in the test with EKVX NSCLC is 1.97 µM; with HL-60(TB) leukemia it was 0.343 µM; with MDA-MB-435, 0.588 µM; with NCI-H460 lung it was 5.38 µM; with NCI/ADR-RES ovarian it was 1.13 µM; with OVCAR-5 ovarian it was 2.73 µM. Besides, the TGI in the test on OVCAR-8 ovarian stood at 5.12 µM; with SF-268 CNS it was 5.94 µM; in the test with SK-MEL-28 melanoma, 0.705 µM.
